Laboratory results published in patent US10111890B2, “9-aminomethyl minocycline compounds and uses thereof” (Paratek Pharmaceuticals, Inc., priority 2016, dated 2018).

Test: Phase 3 oral omadacycline vs oral linezolid in ABSSSI: safety (adverse events, TEAEs, vital signs, ECG, laboratory)
Assay type: in vivo
Conditions: safety population
Description: An Adverse Event (AE) is any untoward, undesired, or unplanned event in the form of signs, symptoms, disease, or laboratory or physiologic observations occurring in a person given a test article or in a clinical study. […] An AE includes, but is not limited to, the following: any clinically significant worsening of a preexisting condition; an AE occurring from overdose of a test article, whether accidental or intentional; overdose is a dose greater than that specified in the protocol; an AE occurring from abuse (e.g., use for nonclinical reasons) of a test article; and an AE that has been associated with the discontinuation of the use of a test article.
The severity (or intensity) of an AE was classified using the following criteria:
Concerning relatedness, causality (i.e., whether there was a reasonable possibility that test article caused the event) for all AEs and SAEs was assessed.
Safety variables include the incidence rate of AEs, change in vital signs, ECG parameters and laboratory test results obtained during the course of the study. For safety analyses, subjects were analyzed according to the treatment actually received.
Summary tables were provided for all treatment-emergent adverse events (TEAEs). A TEAE is defined as an AE with a start date and time on or after the first dose of test article. […] Additional tabulations provide summaries by SOC and PT of subjects experiencing SAEs, severe TEAEs, TEAEs judged to be related to test article, TEAEs leading to discontinuation of test article, and TEAEs of special interest.
The following variables were analyzed descriptively: Vital signs (systolic and diastolic BP, pulse rate, body temperature, respiratory rate), including change from Screening by visit; Clinically notable vital signs (meeting predefined criteria as specified in the SAP) by visit. Subjects with notable vital signs data were listed.
ECG data (RR interval, PR interval, QRS interval, QTc, QTc Bazett's Correction Formula [QTcB], and QTc Fridericia's Correction Formula [QTcF]) was summarized descriptively at each scheduled evaluation, and for the overall worst post-Screening value. Changes from Screening at each visit that a 12-lead ECG was obtained was also provided. An outlier analysis was conducted based on the worst post-Screening value.
The following variables were analyzed descriptively: Laboratory variables by visit; Change from Screening of laboratory variables by visit; and Clinically notable laboratory values (meeting predefined criteria specified in the SAP) by visit.

With `CC(=O)NCC1CN(c2ccc(N3CCOCC3)c(F)c2)C(=O)O1` (stereo not drawn) [Linezolid, N-[[3-(3-fluoro-4-morpholinophenyl)-2-oxooxazolidin-5-yl]methyl]acetamide, reference compound] the Subjects who died was 1 (0.3) n (%), the “Subjects with at Least One Adverse Events (AE)” value was 140 (38.1) n (%) and the “Subjects with at Least One Drug-Related Serious TEAE” value was 1 (0.3) n (%). For the same molecule, the “Subjects with at Least One Drug-Related TEAE” value was 52 (14.2) n (%), the “Subjects with at Least One Serious TEAE” value was 5 (1.4) n (%) and the “Subjects with at Least One Serious TEAE leading to Death” value was 1 (0.3) n (%). For the same molecule, the “Subjects with at Least One Serious TEAEs leading to premature discontinuation of test article” value was 2 (0.5) n (%), the “Subjects with at Least One Severe TEAE” value was 7 (1.9) n (%) and the “Subjects with at Least One TEAE Leading to Study Drug Discontinuation” value was 3 (0.8) n (%). For the same molecule, the “Subjects with at Least One TEAE leading to dose interruption” value was 0 n (%), the “Subjects with at Least One TEAE leading to premature discontinuation of study” value was 1 (0.3) n (%) and the “Subjects with at Least One TEAE leading to premature discontinuation of test article” value was 3 (0.8) n (%). For the same molecule, the “TEAE leading to study drug discontinuation: Cellulitis” value was 0 n (%), the “TEAE leading to study drug discontinuation: Gastrointestinal Disorders (SOC)” value was 0 n (%) and the “TEAE leading to study drug discontinuation: Haematemesis” value was 0 n (%). For the same molecule, the “TEAE leading to study drug discontinuation: Infections And Infestations (SOC)” value was 1 (0.3) n (%), the “TEAE leading to study drug discontinuation: Nausea” value was 0 n (%) and the “TEAE leading to study drug discontinuation: Pregnancy” value was 0 n (%). For the same molecule, the “TEAE leading to study drug discontinuation: Pregnancy, Puerperium And Perinatal Conditions (SOC)” value was 0 n (%), the “TEAE leading to study drug discontinuation: Staphylococcal Bacteraemia” value was 0 n (%) and the “TEAE leading to study drug discontinuation: Subcutaneous Abscess” value was 0 n (%). The “TEAE leading to study drug discontinuation: Vomiting” value was 0 n (%), the “TEAE leading to study drug discontinuation: Wound Infection” value was 1 (0.3) n (%) and the “TEAE: Alanine Aminotransferase Increased” value was 11 (3.0) n (%). The “TEAE: Aspartate Aminotransferase Increased” value was 12 (3.3) n (%), the “TEAE: Cellulitis” value was 9 (2.5) n (%) and the “TEAE: Headache” value was 8 (2.2) n (%). For the same molecule, the “TEAE: Wound Infection” value was 17 (4.6) n (%), the “Total Number of AEs” value was 250 and the “Total Number of TEAEs” value was 239. For the same molecule, the “Subjects with at Least One TEAE” value (AE overview) was 137 (37.3) n (%), the “TEAE: Abdominal Pain Upper” value (all severities) was 4 (1.1) n (%) and the “TEAE: Diarrhea” value (all severities) was 10 (2.7) n (%). The “TEAE: Nausea” value (all severities) was 28 (7.6) n (%), the “TEAE: Vomiting” value (all severities) was 11 (3.0) n (%) and the “Subjects with at Least One TEAE, Mild” value (highest severity Mild) was 85 (23.2) n (%). The “TEAE: Abdominal Pain Upper, Mild” value (highest severity Mild) was 4 (1.1) n (%), the “TEAE: Abdominal Pain, Mild” value (highest severity Mild) was 1 (0.3) n (%) and the “TEAE: Diarrhea, Mild” value (highest severity Mild) was 9 (2.5) n (%). For the same molecule, the “TEAE: Gastrointestinal Disorders (SOC), Mild” value (highest severity Mild) was 44 (12.0) n (%), the “TEAE: Nausea, Mild” value (highest severity Mild) was 24 (6.5) n (%) and the “TEAE: Vomiting, Mild” value (highest severity Mild) was 10 (2.7) n (%). For the same molecule, the “Subjects with at Least One TEAE, Moderate” value (highest severity Moderate) was 45 (12.3) n (%), the “TEAE: Abdominal Pain Upper, Moderate” value (highest severity Moderate) was 0 n (%) and the “TEAE: Abdominal Pain, Moderate” value (highest severity Moderate) was 1 (0.3) n (%). For the same molecule, the “TEAE: Diarrhea, Moderate” value (highest severity Moderate) was 1 (0.3) n (%), the “TEAE: Gastrointestinal Disorders (SOC), Moderate” value (highest severity Moderate) was 8 (2.2) n (%) and the “TEAE: Nausea, Moderate” value (highest severity Moderate) was 4 (1.1) n (%). The “TEAE: Vomiting, Moderate” value (highest severity Moderate) was 1 (0.3) n (%), the “Subjects with at Least One TEAE, Severe” value (highest severity Severe) was 7 (1.9) n (%) and the “TEAE: Abdominal Pain Upper, Severe” value (highest severity Severe) was 0 n (%). For the same molecule, the “TEAE: Abdominal Pain, Severe” value (highest severity Severe) was 0 n (%), the “TEAE: Diarrhea, Severe” value (highest severity Severe) was 0 n (%) and the “TEAE: Gastrointestinal Disorders (SOC), Severe” value (highest severity Severe) was 0 n (%). For the same molecule, the “TEAE: Nausea, Severe” value (highest severity Severe) was 0 n (%), the “TEAE: Vomiting, Severe” value (highest severity Severe) was 0 n (%) and the “Subjects with at Least One TEAE” value (most frequent (≥2%) TEAEs table) was 137 (37.3) n (%).
